Measurements reported in ChEMBL document CHEMBL5465560, “Selectivity Literature for EUbOPEN Chemogenomic Library” (2024).

What was measured:
[1] = biological target: T1, Muscarinic acetylcholine receptor M1 (Homo sapiens) (UniProt P11229); assay: Selectivity interaction (Eurofins Cerep-Panlabs Safety Screen 44 (GPCRS, Transporters, Ion Channels, Nuclear Receptors, other enzymes)) EUB0000878a CHRM1; conditions: at 10 µM
T1 sequence (whole entry): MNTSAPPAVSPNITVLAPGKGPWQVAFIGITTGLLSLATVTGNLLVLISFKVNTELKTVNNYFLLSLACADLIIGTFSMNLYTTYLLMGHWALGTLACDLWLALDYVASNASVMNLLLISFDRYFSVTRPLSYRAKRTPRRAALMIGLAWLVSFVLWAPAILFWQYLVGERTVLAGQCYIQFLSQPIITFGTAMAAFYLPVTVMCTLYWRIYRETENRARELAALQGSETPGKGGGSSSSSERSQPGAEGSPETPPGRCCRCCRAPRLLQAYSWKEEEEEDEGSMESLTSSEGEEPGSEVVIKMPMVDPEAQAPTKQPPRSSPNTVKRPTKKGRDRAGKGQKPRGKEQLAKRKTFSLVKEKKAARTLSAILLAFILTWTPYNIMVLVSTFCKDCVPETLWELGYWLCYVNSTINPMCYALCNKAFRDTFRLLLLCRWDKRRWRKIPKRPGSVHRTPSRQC

[2] = biological target: T2, Muscarinic acetylcholine receptor M2 (Homo sapiens) (UniProt P08172); assay: Selectivity interaction (Eurofins Cerep-Panlabs Safety Screen 44 (GPCRS, Transporters, Ion Channels, Nuclear Receptors, other enzymes)) EUB0000878a CHRM2; conditions: at 10 µM
T2 sequence (whole entry): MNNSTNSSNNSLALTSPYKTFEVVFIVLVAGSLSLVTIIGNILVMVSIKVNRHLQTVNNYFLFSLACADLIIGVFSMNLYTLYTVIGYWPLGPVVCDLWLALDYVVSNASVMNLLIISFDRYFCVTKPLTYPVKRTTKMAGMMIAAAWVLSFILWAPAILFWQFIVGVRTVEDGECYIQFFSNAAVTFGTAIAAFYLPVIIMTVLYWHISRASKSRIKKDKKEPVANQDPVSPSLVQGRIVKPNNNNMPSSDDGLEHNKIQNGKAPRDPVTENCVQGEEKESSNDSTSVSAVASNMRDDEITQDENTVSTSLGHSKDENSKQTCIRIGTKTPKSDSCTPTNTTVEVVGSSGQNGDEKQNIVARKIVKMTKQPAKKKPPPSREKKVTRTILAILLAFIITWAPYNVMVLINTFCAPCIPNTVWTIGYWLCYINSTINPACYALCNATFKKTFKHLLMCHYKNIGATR

[3] = biological target: Muscarinic acetylcholine receptor M3 (Homo sapiens, UniProt P20309); assay: Selectivity interaction (Eurofins Cerep-Panlabs Safety Screen 44 (GPCRS, Transporters, Ion Channels, Nuclear Receptors, other enzymes)) EUB0000878a CHRM3; conditions: at 10 µM
[4] = biological target: T3, Dual specificity mitogen-activated protein kinase kinase 5 (Homo sapiens) (UniProt Q13163); assay: Selectivity interaction (KinomeScan (DiscoverX)) EUB0000878a MAP2K5; conditions: at 1 µM
T3 sequence (whole entry): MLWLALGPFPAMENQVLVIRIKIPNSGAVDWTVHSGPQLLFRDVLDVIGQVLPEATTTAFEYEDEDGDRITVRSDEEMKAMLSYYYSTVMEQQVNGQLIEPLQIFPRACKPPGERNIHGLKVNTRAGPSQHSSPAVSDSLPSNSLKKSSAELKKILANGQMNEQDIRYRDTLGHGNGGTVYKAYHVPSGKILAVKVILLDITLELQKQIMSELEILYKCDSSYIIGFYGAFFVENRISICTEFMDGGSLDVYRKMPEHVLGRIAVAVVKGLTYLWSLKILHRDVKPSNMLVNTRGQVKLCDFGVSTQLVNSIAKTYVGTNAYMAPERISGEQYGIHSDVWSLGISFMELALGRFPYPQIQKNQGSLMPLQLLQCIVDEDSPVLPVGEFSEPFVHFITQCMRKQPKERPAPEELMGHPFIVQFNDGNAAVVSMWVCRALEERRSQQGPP

[5] = biological target: Mitogen-activated protein kinase kinase kinase 11 (Homo sapiens) (UniProt Q16584); assay: Selectivity interaction (KinomeScan (DiscoverX)) EUB0000878a MAP3K11; conditions: at 1 µM
[6] = biological target: Phosphatidylinositol 4-phosphate 5-kinase type-1 gamma (Homo sapiens) (UniProt O60331); assay: Selectivity interaction (KinomeScan (DiscoverX)) EUB0000878a PIP5K1C; conditions: at 1 µM
[7] = biological target: T4, Receptor-interacting serine/threonine-protein kinase 4 (Homo sapiens) (UniProt P57078); assay: Selectivity interaction (KinomeScan (DiscoverX)) EUB0000878a RIPK4; conditions: at 1 µM
T4 sequence (whole entry): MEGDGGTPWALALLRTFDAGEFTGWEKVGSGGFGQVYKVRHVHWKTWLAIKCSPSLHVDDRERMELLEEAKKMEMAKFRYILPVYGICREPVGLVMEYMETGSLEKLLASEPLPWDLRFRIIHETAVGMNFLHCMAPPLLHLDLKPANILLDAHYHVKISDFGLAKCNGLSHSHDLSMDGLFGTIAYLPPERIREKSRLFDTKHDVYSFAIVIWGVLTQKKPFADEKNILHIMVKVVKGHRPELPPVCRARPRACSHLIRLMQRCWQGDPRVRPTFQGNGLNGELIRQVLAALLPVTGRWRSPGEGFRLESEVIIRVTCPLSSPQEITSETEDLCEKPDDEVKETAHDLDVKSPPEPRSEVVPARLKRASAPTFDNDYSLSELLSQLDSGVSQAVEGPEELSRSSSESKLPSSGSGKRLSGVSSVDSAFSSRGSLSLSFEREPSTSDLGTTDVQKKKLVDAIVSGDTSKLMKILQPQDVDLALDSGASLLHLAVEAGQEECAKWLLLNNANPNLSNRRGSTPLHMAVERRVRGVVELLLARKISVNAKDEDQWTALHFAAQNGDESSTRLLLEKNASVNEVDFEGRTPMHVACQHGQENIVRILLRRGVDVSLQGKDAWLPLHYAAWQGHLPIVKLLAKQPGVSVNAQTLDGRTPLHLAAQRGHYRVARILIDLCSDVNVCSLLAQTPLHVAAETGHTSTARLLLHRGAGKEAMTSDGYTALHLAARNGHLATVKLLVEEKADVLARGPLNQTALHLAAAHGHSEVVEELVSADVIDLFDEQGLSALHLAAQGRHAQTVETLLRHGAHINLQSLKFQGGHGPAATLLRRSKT

[8] = biological target: Sodium-dependent noradrenaline transporter (Homo sapiens, UniProt P23975); assay: Selectivity interaction (Eurofins Cerep-Panlabs Safety Screen 44 (GPCRS, Transporters, Ion Channels, Nuclear Receptors, other enzymes)) EUB0000878a SLC6A2; conditions: at 10 µM
[9] = biological target: Sodium-dependent dopamine transporter (Homo sapiens, UniProt Q01959); assay: Selectivity interaction (Eurofins Cerep-Panlabs Safety Screen 44 (GPCRS, Transporters, Ion Channels, Nuclear Receptors, other enzymes)) EUB0000878a SLC6A3; conditions: at 10 µM
[10] = biological target: T5, Alpha-1B adrenergic receptor (Homo sapiens) (UniProt P35368); assay: Selectivity interaction (GPCR panel (PDSP screen)) EUB0001066a ADRA1B; conditions: at 10 µM
T5 sequence (whole entry): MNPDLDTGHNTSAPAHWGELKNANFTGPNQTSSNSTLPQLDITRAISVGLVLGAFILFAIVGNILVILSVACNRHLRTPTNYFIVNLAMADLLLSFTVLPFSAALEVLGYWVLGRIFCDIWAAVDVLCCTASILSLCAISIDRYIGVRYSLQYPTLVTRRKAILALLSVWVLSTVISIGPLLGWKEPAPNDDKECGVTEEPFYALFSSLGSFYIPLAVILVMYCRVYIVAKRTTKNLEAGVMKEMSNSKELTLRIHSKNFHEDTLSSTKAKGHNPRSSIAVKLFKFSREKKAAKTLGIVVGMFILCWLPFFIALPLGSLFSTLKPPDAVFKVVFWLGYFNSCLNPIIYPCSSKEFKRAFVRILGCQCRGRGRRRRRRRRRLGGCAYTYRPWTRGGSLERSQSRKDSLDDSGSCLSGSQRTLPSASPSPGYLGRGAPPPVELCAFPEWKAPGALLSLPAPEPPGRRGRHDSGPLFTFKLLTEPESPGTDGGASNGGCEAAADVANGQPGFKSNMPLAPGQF

[11] = biological target: 5-hydroxytryptamine receptor 1E (Homo sapiens) (UniProt P28566); assay: Selectivity interaction (GPCR panel (PDSP screen)) EUB0001066a HTR1E; conditions: at 10 µM
[12] = biological target: T6, 5-hydroxytryptamine receptor 2C (Homo sapiens) (UniProt P28335); assay: Selectivity interaction (GPCR panel (PDSP screen)) EUB0001066a HTR2C; conditions: at 10 µM
T6 sequence (whole entry): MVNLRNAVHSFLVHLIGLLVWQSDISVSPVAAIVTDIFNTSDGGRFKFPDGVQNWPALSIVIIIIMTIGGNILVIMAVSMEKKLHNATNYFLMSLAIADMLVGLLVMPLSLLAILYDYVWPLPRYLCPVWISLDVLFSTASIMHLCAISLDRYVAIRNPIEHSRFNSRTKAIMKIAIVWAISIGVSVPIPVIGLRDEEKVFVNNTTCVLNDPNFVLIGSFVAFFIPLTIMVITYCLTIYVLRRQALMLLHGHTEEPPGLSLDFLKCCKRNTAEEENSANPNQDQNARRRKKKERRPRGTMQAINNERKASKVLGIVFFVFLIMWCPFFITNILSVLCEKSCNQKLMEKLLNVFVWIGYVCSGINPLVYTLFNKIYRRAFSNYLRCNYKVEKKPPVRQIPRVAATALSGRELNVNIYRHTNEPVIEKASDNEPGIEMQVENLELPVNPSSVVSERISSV

[13] = test system: Mast/stem cell growth factor receptor Kit (Homo sapiens), P10721 [UNDEFINED MUTATION]; assay: Selectivity interaction (KinomeScan (DiscoverX)) EUB0001066a KIT; conditions: at 1 µM
[14] = biological target: T7, Serine/threonine-protein kinase NLK (Homo sapiens) (UniProt Q9UBE8); assay: Selectivity interaction (KinomeScan (DiscoverX)) EUB0001066a NLK; conditions: at 1 µM
T7 sequence (whole entry): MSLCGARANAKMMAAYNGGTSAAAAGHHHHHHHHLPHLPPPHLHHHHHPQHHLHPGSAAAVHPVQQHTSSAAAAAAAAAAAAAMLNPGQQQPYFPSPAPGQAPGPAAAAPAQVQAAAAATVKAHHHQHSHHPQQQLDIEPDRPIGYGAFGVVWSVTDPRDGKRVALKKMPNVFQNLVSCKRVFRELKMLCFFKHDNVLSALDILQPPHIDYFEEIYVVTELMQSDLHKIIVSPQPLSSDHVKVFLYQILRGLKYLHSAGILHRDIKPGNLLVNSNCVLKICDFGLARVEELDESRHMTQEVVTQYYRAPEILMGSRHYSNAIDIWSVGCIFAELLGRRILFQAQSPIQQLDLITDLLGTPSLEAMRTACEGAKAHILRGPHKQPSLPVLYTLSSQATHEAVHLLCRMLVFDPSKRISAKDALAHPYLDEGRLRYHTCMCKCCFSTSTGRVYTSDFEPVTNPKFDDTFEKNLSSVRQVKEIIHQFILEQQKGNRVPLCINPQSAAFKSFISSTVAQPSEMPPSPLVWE

[15] = biological target: Serine/threonine-protein kinase pim-2 (Homo sapiens, UniProt Q9P1W9); assay: Selectivity interaction (KinomeScan (DiscoverX)) EUB0001066a PIM2; conditions: at 1 µM
[16] = biological target: Serine/threonine-protein kinase VRK2 (Homo sapiens) (UniProt Q86Y07); assay: Selectivity interaction (KinomeScan (DiscoverX)) EUB0001066a VRK2; conditions: at 1 µM
Serine/threonine-protein kinase VRK2 (Homo sapiens), sequence (Q86Y07 whole entry): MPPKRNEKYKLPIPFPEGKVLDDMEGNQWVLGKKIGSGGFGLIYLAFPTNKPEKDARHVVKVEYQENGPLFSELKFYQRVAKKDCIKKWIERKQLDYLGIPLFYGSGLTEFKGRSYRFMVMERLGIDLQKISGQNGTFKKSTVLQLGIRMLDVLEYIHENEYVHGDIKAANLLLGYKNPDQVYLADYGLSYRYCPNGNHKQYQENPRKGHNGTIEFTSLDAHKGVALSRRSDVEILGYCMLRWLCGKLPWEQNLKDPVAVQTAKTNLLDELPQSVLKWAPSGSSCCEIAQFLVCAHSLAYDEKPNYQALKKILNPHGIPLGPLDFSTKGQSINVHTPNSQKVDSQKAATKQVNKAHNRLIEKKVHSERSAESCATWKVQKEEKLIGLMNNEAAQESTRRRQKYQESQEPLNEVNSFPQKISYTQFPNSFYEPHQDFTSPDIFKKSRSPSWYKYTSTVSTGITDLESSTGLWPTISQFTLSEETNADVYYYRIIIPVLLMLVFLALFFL

Sodium-dependent noradrenaline transporter, sequence (P23975 whole entry): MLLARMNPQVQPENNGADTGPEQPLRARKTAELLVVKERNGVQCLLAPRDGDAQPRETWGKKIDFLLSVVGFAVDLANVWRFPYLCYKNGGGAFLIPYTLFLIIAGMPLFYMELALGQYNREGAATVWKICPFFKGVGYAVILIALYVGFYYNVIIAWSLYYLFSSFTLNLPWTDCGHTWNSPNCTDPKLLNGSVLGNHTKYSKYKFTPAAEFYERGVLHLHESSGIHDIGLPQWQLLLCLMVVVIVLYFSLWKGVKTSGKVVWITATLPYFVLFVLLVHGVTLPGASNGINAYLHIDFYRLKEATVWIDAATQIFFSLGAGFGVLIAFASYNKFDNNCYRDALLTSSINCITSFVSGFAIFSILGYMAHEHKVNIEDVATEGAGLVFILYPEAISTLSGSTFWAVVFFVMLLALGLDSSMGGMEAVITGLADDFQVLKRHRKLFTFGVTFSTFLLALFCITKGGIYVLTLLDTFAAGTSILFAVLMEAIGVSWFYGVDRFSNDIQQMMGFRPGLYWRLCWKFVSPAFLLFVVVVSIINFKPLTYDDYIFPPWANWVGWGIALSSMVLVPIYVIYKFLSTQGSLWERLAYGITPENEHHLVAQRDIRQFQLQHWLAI
Mitogen-activated protein kinase kinase kinase 11 (Homo sapiens), sequence (Q16584 whole entry, looked up): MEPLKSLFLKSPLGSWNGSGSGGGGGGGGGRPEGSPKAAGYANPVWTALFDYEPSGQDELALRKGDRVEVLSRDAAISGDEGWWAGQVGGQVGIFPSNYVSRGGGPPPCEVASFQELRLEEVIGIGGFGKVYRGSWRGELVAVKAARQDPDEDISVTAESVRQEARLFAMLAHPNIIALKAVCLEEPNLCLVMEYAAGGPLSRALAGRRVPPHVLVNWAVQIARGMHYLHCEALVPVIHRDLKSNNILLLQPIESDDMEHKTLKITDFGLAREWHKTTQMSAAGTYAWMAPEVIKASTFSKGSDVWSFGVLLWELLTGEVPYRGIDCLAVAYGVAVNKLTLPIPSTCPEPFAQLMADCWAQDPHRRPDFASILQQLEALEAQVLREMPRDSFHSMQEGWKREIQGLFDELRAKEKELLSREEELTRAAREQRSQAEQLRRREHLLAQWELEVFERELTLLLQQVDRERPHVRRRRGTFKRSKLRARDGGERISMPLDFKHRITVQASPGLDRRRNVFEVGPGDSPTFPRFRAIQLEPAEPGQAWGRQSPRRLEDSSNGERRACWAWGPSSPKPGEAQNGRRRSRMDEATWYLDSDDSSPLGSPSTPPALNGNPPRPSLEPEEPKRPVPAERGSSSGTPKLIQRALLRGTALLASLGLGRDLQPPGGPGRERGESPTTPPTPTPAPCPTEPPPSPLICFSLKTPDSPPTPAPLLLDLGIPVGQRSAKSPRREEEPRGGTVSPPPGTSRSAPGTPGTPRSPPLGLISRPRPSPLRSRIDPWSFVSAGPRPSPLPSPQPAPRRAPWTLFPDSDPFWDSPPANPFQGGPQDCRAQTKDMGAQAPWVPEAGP
Muscarinic acetylcholine receptor M3, sequence (P20309 whole entry, looked up): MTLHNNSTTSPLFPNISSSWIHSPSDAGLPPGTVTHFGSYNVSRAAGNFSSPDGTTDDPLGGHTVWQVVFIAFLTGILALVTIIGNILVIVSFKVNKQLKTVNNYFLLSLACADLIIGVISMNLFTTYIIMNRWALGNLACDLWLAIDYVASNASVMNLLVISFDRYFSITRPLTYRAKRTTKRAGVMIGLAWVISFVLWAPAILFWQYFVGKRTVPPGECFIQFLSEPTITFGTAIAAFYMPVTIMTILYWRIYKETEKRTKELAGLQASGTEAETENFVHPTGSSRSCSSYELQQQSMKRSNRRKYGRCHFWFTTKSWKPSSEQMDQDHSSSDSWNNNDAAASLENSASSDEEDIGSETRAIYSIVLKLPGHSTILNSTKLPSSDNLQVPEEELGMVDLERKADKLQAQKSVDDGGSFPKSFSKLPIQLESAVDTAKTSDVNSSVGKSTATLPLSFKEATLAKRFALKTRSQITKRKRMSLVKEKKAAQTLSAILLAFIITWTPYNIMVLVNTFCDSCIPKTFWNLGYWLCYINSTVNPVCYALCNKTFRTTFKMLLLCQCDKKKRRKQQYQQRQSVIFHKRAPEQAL
Mast/stem cell growth factor receptor Kit (Homo sapiens), P10721 [UNDEFINED MUTATION], sequence (P10721 whole entry, looked up, change not shown): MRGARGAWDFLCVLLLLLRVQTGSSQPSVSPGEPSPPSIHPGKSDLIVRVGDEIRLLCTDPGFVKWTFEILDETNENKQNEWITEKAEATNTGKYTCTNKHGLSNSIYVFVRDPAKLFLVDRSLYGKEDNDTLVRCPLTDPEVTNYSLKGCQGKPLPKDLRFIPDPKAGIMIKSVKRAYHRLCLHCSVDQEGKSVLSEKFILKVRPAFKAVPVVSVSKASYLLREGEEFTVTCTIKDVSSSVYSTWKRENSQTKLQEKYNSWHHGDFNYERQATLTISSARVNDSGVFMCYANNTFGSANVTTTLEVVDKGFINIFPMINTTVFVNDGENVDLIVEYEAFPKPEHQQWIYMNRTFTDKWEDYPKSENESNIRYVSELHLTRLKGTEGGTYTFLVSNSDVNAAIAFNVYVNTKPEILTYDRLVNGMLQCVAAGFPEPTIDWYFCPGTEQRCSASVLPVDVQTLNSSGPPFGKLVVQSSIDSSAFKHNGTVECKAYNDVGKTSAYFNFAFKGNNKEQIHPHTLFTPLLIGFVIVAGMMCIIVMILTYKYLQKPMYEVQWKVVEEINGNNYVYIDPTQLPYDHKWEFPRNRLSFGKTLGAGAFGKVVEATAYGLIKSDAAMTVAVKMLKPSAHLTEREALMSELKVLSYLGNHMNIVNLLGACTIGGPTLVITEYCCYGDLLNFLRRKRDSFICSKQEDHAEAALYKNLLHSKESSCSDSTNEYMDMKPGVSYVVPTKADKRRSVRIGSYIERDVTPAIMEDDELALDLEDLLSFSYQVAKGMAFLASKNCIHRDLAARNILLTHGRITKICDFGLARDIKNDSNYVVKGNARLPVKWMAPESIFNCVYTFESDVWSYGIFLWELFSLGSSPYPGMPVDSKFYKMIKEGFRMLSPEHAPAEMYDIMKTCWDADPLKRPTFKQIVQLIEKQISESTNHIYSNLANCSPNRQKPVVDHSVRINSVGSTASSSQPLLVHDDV
Phosphatidylinositol 4-phosphate 5-kinase type-1 gamma (Homo sapiens), sequence (O60331 whole entry): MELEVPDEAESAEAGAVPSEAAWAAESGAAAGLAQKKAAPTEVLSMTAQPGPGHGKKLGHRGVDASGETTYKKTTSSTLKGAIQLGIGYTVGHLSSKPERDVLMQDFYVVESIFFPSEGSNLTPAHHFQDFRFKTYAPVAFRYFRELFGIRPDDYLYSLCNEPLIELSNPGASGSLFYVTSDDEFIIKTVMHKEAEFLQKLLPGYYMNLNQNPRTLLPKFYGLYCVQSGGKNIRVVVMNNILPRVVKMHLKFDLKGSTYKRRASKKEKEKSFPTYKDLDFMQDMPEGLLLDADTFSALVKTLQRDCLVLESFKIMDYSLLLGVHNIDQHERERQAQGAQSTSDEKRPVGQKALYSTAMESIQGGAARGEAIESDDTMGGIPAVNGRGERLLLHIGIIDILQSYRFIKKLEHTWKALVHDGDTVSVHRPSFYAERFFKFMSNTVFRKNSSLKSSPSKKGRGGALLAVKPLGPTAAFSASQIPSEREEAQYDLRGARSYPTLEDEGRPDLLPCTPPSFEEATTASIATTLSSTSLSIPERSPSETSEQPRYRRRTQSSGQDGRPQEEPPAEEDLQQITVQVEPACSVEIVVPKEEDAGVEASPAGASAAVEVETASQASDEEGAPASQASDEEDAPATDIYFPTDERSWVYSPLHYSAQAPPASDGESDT
5-hydroxytryptamine receptor 1E (Homo sapiens), sequence (P28566 whole entry): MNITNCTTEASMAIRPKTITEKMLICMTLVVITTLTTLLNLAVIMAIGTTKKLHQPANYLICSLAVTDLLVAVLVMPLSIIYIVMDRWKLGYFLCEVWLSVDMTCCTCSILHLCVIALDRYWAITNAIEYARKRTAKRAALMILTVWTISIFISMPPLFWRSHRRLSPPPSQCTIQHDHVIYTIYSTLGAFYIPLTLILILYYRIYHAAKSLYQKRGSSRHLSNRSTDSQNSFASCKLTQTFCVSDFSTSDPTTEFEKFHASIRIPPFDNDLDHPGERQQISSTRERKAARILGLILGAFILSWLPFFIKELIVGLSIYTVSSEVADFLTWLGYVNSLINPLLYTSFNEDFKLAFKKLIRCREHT
Serine/threonine-protein kinase pim-2, sequence (Q9P1W9 whole entry, looked up): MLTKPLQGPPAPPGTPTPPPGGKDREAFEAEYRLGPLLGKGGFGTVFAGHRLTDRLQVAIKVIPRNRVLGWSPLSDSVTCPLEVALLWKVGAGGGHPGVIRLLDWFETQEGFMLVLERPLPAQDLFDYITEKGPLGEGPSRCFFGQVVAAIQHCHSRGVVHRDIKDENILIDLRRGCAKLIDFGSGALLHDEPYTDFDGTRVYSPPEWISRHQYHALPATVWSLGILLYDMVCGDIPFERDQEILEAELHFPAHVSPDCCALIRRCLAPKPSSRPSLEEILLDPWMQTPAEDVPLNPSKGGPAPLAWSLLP

Compound	% of inhibition or stimulation [1]	% of inhibition or stimulation [2]	% of inhibition or stimulation [3]	% of control [4]	% of control [5]	% of control [6]	% of control [7]	% of inhibition or stimulation [8]	% of inhibition or stimulation [9]	% of inhibition [10]	% of inhibition [11]	% of inhibition [12]	% of control [13]	% of control [14]	% of control [15]	% of control [16]
CC(C)c1cc(Nc2nc(N3CCC[C@H](N)C3)ncc2C(N)=O)cc(C(C)C)n1	84%	70%	84%	4.5%	99%	0%	0.95%	87%	100%							
Cc1nccc(COC(=O)N2C[C@@H]3[C@@H](CNC(=O)c4ccc5[nH]nnc5c4)[C@@H]3C2)n1										30.2%	31.8%	31.1%	41%	41%	0%	29%
